Source: ChEMBL document CHEMBL4340540, “3-Substituted Quinolines as RORγt Inverse Agonists” (Bioorg Med Chem Lett, 2019)
Values after ≈ are worked out from the molar mass of the structure shown.

Columns and labels:
[1] = Equilibrium aqueous solubility of the compound at pH 7; assay type: physicochemical
[2] = Equilibrium aqueous solubility of the compound at pH 2; assay type: physicochemical
[3] = biological target: T1, Nuclear receptor ROR-gamma (Homo sapiens) (UniProt P51449); test: Inverse agonist activity at GAL4-DNA binding domain-fused human full length RORgammat expressed in pGL4.31 transfected HEK293T cells assessed as inhibition of RORGgammat driven transcriptional activity at 2 uM after 24 hrs by luciferase reporter gene assay relative to control; assay type: cell-based
T1 sequence (whole entry): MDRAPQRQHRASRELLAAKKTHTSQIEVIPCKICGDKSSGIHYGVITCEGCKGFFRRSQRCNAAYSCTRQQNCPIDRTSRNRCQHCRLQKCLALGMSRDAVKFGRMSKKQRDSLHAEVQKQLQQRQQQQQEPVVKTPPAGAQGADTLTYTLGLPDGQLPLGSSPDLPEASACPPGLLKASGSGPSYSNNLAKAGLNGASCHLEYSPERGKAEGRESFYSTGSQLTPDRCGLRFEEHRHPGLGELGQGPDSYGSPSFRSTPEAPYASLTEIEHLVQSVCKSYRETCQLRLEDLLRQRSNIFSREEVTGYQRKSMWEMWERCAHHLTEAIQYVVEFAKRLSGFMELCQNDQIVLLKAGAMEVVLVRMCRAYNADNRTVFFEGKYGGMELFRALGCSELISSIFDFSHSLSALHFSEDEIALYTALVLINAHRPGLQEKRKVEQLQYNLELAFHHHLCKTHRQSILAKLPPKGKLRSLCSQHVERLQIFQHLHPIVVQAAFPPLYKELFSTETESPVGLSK

[4] = Cmax in rat at 5 mg/kg, po; assay type: ADME, organism-based; parameters: dose 5 mg/kg, route oral; conditions: in vivo
[5] = Oral bioavailability in rat at 5 mg/kg; conditions: in vivo
[6] = Clearance in rat at 1 mg/kg, iv; assay type: ADME, organism-based; conditions: in vivo
[7] = Half life in rat at 1 mg/kg, iv; assay type: ADME, organism-based; conditions: in vivo
[8] = Volume of distribution at steady state in rat at 1 mg/kg, iv; assay type: ADME, organism-based; conditions: in vivo, read-out: Vdss
[9] = Half life in rat at 5 mg/kg, po; assay type: ADME, organism-based; conditions: in vivo
[10] = biological target: T1, Nuclear receptor ROR-gamma (Homo sapiens); test: Inverse agonist activity at GAL4-DNA binding domain-fused human full length RORgammat expressed in pGL4.31 transfected HEK293T cells assessed as inhibition of RORGgammat driven transcriptional activity at 3 uM after 24 hrs by dual-luciferase reporter gene assay relative to control; assay type: cell-based
[11] = in vitro; conditions: rat, liver microsomes
Description: Extraction ratio in rat liver microsomes

[12] = in vitro; conditions: human, liver microsomes
Description: Extraction ratio in human liver microsomes

[13] = biological target: T2, Nuclear receptor ROR-gamma (Homo sapiens, UniProt P51449)
T2 sequence (P51449 whole entry): T1 sequence (whole entry)

[14] = biological target: T1, Nuclear receptor ROR-gamma (Homo sapiens); test: Inverse agonist activity at GAL4-DNA binding domain-fused human RORgammat LBD expressed in pGL4.31 transfected HEK293T cells assessed as inhibition of RORGgammat driven transcriptional activity at 1 uM after 24 hrs by dual-luciferase reporter gene assay relative to control; assay type: cell-based

SMILES | solubility thermodynamic [1] [µM] | solubility thermodynamic [2] [µM] | further results
COc1nc2ccc(C(O)(c3ccc(C)nc3C)c3cnnn3C)cc2c(Cl)c1OCc1nccs1 (stereo not given) | < 4 | > 400 | –
COc1nc2ccc(C(O)(c3ccnc(C(F)(F)F)c3)c3cnnn3C)cc2c(Cl)c1CN1CCC(C(F)(F)F)CC1 (stereo not given) | < 4 | > 400 | inhibition [3]: 100%
COc1nc2ccc(C(O)(c3ccc(C)nc3C)c3cnnn3C)cc2c(Cl)c1OCC1CC1(F)F (stereo not given) | < 4 | 371 (≈ 191 µg/mL) | –
COc1nc2ccc(C(O)(c3ccc(C)nc3C)c3cnnn3C)cc2c(Cl)c1OCC1CC1 (stereo not given) | < 1 | > 400 | –
COc1nc2ccc(C(O)(c3cnc(C)n3C)C3CN(C(C)=O)C3)cc2c(Cl)c1CN1CCC(C(F)(F)F)CC1 (stereo not given) | > 400 | > 400 | –
COc1nc2ccc(C(O)(c3ccc(C)nc3C)c3cnnn3C)cc2c(Cl)c1CC1CCC(F)(F)CC1 (stereo not given) | < 1 | > 400 | –
COc1nc2ccc(C(O)(c3ccc(C)nc3C)c3cnnn3C)cc2c(Cl)c1OCc1ncccn1 (stereo not given) | 336 (≈ 174 µg/mL) | > 400 | –
COc1nc2ccc(C(O)(c3ccc(C)nc3C)c3cnnn3C)cc2c(Cl)c1CN1CCC(F)(F)CC1 (stereo not given) | < 4 | > 400 | –
COc1nc2ccc(C(O)(c3ccc(C)nc3C)c3cnnn3C)cc2c(Cl)c1C (stereo not given) | < 4 | > 400 | –
COc1nc2ccc(C(O)(c3cnc(C)n3C)c3cnc(C)n3C)cc2c(Cl)c1CN1CCC(C(F)(F)F)CC1 | 4 to 7 (≈ 2.31 to 4.04 µg/mL) | > 400 | –
COc1nc2ccc([C@@](O)(c3ccc(C(F)(F)F)nc3)c3cncn3C)cc2c(Cl)c1CN1CCC(C(F)(F)F)CC1 | < 1 | > 400 | Cmax [4]: 553 ng/mL; bioavailability [5]: 77%; clearance [6]: 7.9 mL/min/kg; half-life [7]: 546 min; Vd [8]: 5.7 L/kg; half-life [9]: 510 min
COc1nc2ccc(C(O)(c3ccc(C)nc3C)c3cnnn3C)cc2c(Cl)c1CC1CC1 (stereo not given) | < 1 | > 400 | –
COc1nc2ccc(C(O)(c3cnc(C)n3C)C3CCOCC3)cc2c(Cl)c1CN1CCC(C(F)(F)F)CC1 (stereo not given) | 283 (≈ 160 µg/mL) | > 400 | –
COc1nc2ccc(C(O)(c3ccc(C)nc3C)c3cnnn3C)cc2c(Cl)c1OC1CCOCC1 (stereo not given) | 41 (≈ 20.9 µg/mL) | > 400 | –
COc1nc2ccc(C(O)(c3ccc(C)nc3C)c3cnnn3C)cc2c(Cl)c1CC(F)(F)F (stereo not given) | < 4 | 395 (≈ 194 µg/mL) | –
COc1nc2ccc(C(O)(c3ccc(C)nc3C)c3cnnn3C)cc2c(Cl)c1OC(C)C (stereo not given) | < 1 | > 400 | –

SMILES | solubility thermodynamic [1] [µM] | solubility thermodynamic [2] [µM] | further results
COc1nc2ccc([C@](O)(c3ccnc(C(F)(F)F)c3)c3cnc(C)n3C)cc2c(Cl)c1CN1CCC(C(F)(F)F)CC1 | < 4 | > 400 | inhibition [3]: 101%
COc1nc2ccc(C(O)(c3cc(C)nc(C)c3)c3cnnn3C)cc2c(Cl)c1CN1CCC(C(F)(F)F)CC1 (stereo not given) | < 1 | > 400 | –
COc1nc2ccc(C(O)(c3ccc(C)nc3C)c3cnnn3C)cc2c(Cl)c1CN1CCC(F)CC1 (stereo not given) | 100 (≈ 52.5 µg/mL) | > 400 | –
COc1nc2ccc(C(O)(c3ccc(C)nc3C)c3cnnn3C)cc2c(Cl)c1C(=O)N1CCC(C(F)(F)F)CC1 (stereo not given) | 60 (≈ 35.3 µg/mL) | > 400 | inhibition [10]: 66%; hepatic extraction ratio [11]: 0.8; hepatic extraction ratio [12]: 0.8; IC50 [13]: 386 nM
COc1nc2ccc(C(O)(c3cnnn3C)c3cnc(C)n3C)cc2c(Cl)c1CN1CCC(C(F)(F)F)CC1 (stereo not given) | 31 (≈ 17.5 µg/mL) | > 400 | –
COc1nc2ccc(C(O)(c3ccc(C)nc3C)c3cnnn3C)cc2c(Cl)c1Cc1ccc(C(F)(F)F)cc1 (stereo not given) | < 1 | 202 (≈ 115 µg/mL) | inhibition [14]: 100%
COc1nc2ccc(C(O)(c3ccc(C)nc3C)c3cnnn3C)cc2c(Cl)c1CC1CCS(=O)(=O)CC1 (stereo not given) | 13 (≈ 7.23 µg/mL) | 387 (≈ 215 µg/mL) | hepatic extraction ratio [11]: 0.7; hepatic extraction ratio [12]: 0.9; IC50 [13]: 280 nM
COc1nc2ccc(C(O)(c3ccc(C)nc3C)c3cnnn3C)cc2c(Cl)c1CC(C)C (stereo not given) | < 1 | > 400 | –
COc1nc2ccc(C(O)(c3ccc(C)nc3C)c3cnnn3C)cc2c(Cl)c1CN1CC(C(F)(F)F)C1 (stereo not given) | 8 (≈ 4.38 µg/mL) | > 400 | –
COc1nc2ccc(C(O)(c3ccc(Cl)cc3)c3cncn3C)cc2c(Cl)c1Cc1ccc(-n2cccn2)cc1 (stereo not given) | < 1 | < 1 | Cmax [4]: 262 ng/mL; bioavailability [5]: 42%; clearance [6]: 11.5 mL/min/kg; half-life [7]: 336 min; Vd [8]: 4.3 L/kg; half-life [9]: 336 min
COc1nc2ccc(C(O)(c3ccc(C)nc3C)c3cnnn3C)cc2c(Cl)c1CN1CCC(C(F)(F)F)CC1 (stereo not given) | < 1 | > 400 | –
COc1nc2ccc(C(O)(c3ccc(C)nc3C)c3cnnn3C)cc2c(Cl)c1C1CCCC1 (stereo not given) | < 4 | 273 (≈ 130 µg/mL) | –
COc1nc2ccc(C(O)(c3ccc(C(F)(F)F)nc3)C3CN(C(C)=O)C3)cc2c(Cl)c1CN1CCC(C(F)(F)F)CC1 (stereo not given) | < 4 | > 400 | inhibition [3]: 94%
COc1nc2ccc(C(O)(c3ccc(C)nc3C)c3cnnn3C)cc2c(Cl)c1CN1CCC(n2cccn2)CC1 (stereo not given) | 30 (≈ 17.2 µg/mL) | > 400 | –
COc1nc2ccc(C(O)(c3ccnc(C(F)(F)F)c3)c3cncn3C)cc2c(Cl)c1CN1CCC(C(F)(F)F)CC1 (stereo not given) | < 1 | > 400 | –
